Results taken from patent publication US9590187B2, “Substituent-eliminable diketopyrrolopyrrole derivative, organic semiconductor material precursor solution, organic semiconductor material, and organic semiconductor material film” (RICOH COMPANY, LTD., priority 2013, dated 2017).

Key:
[1] = Evaluation of solubility in organic solvents (saturated solution after reflux, cooling to room temperature, filtration, drying); format: physicochemical; conditions: reflux 10 minutes, cooled to room temperature, stand 16 hours, 0.2-μm PTFE filter
Method: Add each of the compounds obtained in the above Examples 1-6 to each of toluene, THF, and chloroform until it gets undissolved. Agitate each solution for 10 minutes under solvent reflux, then cool it to room temperature, further agitate it for 1 hour, and allow it to stand for 16 hours. Filter the supernatant liquid with a 0.2-μm PTFE filter to obtain a saturated solution. Dry the solution under reduced pressures to calculate solubility of each compound against each solvent. Evaluation criteria are as follows.
A: Solubility is 0.5% by weight or more.
B: Solubility is 0.05% by weight or more and less than 0.5% by weight.
C: Solubility is 0.005% by weight or more and less than 0.05% by weight.
D: Solubility is less than 0.005% by weight.

[2] = Thermogravimetric measurement of the elimination reaction (EXSTAR 6200, nitrogen atmosphere); format: physicochemical; conditions: observed within 190 to 210° C.
Method: (§1) Put the above-prepared substituent-eliminable derivative No. 6 (5 mg, 0.10 mmol) in an aluminum pan and heat it to 300° C. at a rate of 10° C./min with a thermal analysis instrument (EXSTAR 6200 from Seiko Instruments Inc.) under nitrogen atmosphere. Thus, a dark purple solid (3.8 mg) is obtained. m/z=704.1 (M+H).
as §1, with “No. 9” for “No. 6”, “mg, […]” for “mg, 0.10 mmol)”, “to 250°” for “to 300°”, “of 20°” for “of 10°”, “(M+H). The thermogravimetric measurement result is shown in FIG. 3.” for “(M+H).”
Repeat the procedures in Example 4 except for replacing the substituent-eliminable derivative No. 6 with No. 16 (5 mg, 4.6 μmol). Thus, a dark purple specific compound (4.2 mg) is obtained. m/z=872.2 (M+H).

[3] = heated to 300° C. at 10° C./min

| SMILES | Solubility in THF [1] | Solubility in Chloroform [1] | Solubility in Toluene [1] | Decrease in weight (thermogravimetric) [2, 3] [%] | Decrease in weight (thermogravimetric) ([2]; heated to 250° C. at 20° C./min) [%] |
| --- | --- | --- | --- | --- | --- |
| CCCCC(CC)CN1C(=O)C2=C(c3ccc(-c4ccc(O)cc4)s3)N(CC(CC)CCCC)C(=O)C2=C1c1ccc(-c2ccc(O)cc2)s1 (stereo not drawn) [Specific Compound No. 6] | D (Solubility is less than 0.005% by weight.) | D (Solubility is less than 0.005% by weight.) | D (Solubility is less than 0.005% by weight.) | – | – |
| CCCCC(CC)CN1C(=O)C2=C(c3ccc(-c4ccc(OC(=O)OC(C)(C)C)cc4)s3)N(CC(CC)CCCC)C(=O)C2=C1c1ccc(-c2ccc(OC(=O)OC(C)(C)C)cc2)s1 (stereo not drawn) [Substituent-eliminable Derivative No. 6] | A (Solubility is 0.5% by weight or more.) | A (Solubility is 0.5% by weight or more.) | B (Solubility is 0.05% by weight or more and less than 0.5% by weight.) | 21.5 | – |
| CCCCC(CC)CN1C(=O)C2=C(c3ccc(-c4ccc(-c5cccc(O)c5)s4)s3)N(CC(CC)CCCC)C(=O)C2=C1c1ccc(-c2ccc(-c3cccc(O)c3)s2)s1 (stereo not drawn) [Specific Compound No. 16] | D (Solubility is less than 0.005% by weight.) | D (Solubility is less than 0.005% by weight.) | D (Solubility is less than 0.005% by weight.) | – | – |
| CCCCC(CC)CN1C(=O)C2=C(c3ccc(-c4cccc(O)c4)s3)N(CC(CC)CCCC)C(=O)C2=C1c1ccc(-c2cccc(O)c2)s1 (stereo not drawn) [Specific Compound No. 9] | D (Solubility is less than 0.005% by weight.) | D (Solubility is less than 0.005% by weight.) | D (Solubility is less than 0.005% by weight.) | – | – |
| CCCCC(CC)CN1C(=O)C2=C(c3ccc(-c4cccc(OC(=O)OC(C)(C)C)c4)s3)N(CC(CC)CCCC)C(=O)C2=C1c1ccc(-c2cccc(OC(=O)OC(C)(C)C)c2)s1 (stereo not drawn) [Substituent-eliminable Derivative No. 9] | A (Solubility is 0.5% by weight or more.) | A (Solubility is 0.5% by weight or more.) | A (Solubility is 0.5% by weight or more.) | – | 21.2 |
| CCCCC(CC)CN1C(=O)C2=C(c3ccc(-c4ccc(-c5cccc(OC(=O)OC(C)(C)C)c5)s4)s3)N(CC(CC)CCCC)C(=O)C2=C1c1ccc(-c2ccc(-c3cccc(OC(=O)OC(C)(C)C)c3)s2)s1 (stereo not drawn) [Substituent-eliminable Derivative No. 16] | A (Solubility is 0.5% by weight or more.) | A (Solubility is 0.5% by weight or more.) | A (Solubility is 0.5% by weight or more.) | 18.5 | – |
